We go through two compounds from patent US7098234B2, “Indole derivatives, process for preparation of the same and use thereof” (Ono Pharmaceutical Co., Ltd., priority 2000, dated 2006).

Assay [1] concerns the target T1, mouse DP receptor (Mus musculus, UniProt P70263).
T1 construct: expressed in transfected cells; host or cells: CHO cells (membrane fraction)
T1 sequence (P70263 1-357): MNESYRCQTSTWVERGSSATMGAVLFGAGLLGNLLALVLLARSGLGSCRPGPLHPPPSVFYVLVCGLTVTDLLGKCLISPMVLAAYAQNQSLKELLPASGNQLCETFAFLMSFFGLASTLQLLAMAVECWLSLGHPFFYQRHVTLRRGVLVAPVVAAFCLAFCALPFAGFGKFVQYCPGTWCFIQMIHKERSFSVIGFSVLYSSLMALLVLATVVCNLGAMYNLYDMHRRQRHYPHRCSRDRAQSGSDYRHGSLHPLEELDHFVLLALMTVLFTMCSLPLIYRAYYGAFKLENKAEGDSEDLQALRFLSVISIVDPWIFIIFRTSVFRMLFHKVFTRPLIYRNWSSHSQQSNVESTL
The assay is described as follows: Receptor binding test using prostanoid DP receptor-expressing cells (3H-PGD2 binding inhibition). As to conditions: CHO cell membranes expressing mouse DP receptor; 3H-PGD2 2.5 nmol/L; Ki=IC50/(1+([L]*/Kd)). As to the method: The compound of the present invention represented by formula (I) potently binds to a DP receptor and show an antagonistic activity. For example, in a laboratory test, such effects were confirmed by the following receptor binding test using prostanoid receptor-expressing cells. • (i) Receptor binding test using prostanoid DP receptor-expressing cells
CHO cells expressing a mouse DP receptor was prepared according to the method of Hirata et al. (Proc. Natl. Acad. Sci., 91, 11192–11196 (1994)) and used as a membrane standard.
A reaction solution (200 μL) containing the prepared membrane standard (30–166 μg) and ^3H-PGD2 was incubated at room temperature for 20 minutes. The reaction was stopped with an ice-cold buffer (1 mL) and the binding ^3H-PGD2 was trapped in on a glass filter by immediate aspiration-filtration under a reduced pressure, and its binding radioactivity was measured using a liquid scintillation counter.
A Kd value and a Bmax value were obtained from Scatchard plots (Ann. N.Y. Acad. Sci., 51, 660 (1949)). Non-specific binding was obtained as the binding radioactivity in the presence of unlabeled PGD2 at an excess amount (10 μmol/L). ^3H-PGD2 binding inhibition by the compound of the present invention was measured by adding ^3H-PGD2 (2.5 nmol/L) and the compound of the present invention as various concentrations. Also, the following buffers were used for the reactions. […]

For assay [2], the target named is T1, mouse DP receptor. Kind of assay: DP antagonistic activity assay using prostanoid DP receptor-expressing cells (cAMP production by PGD2). The format is cell-based. The note with it: CHO cells expressing mouse DP receptor; inhibition of cAMP production by PGD2 at 100 nM. The protocol:
As shown in the above results, it is apparent that the compound of the present invention potently binds to a DP receptor. • (ii) DP antagonistic activity assay using prostanoid DP receptor-expressing cells
CHO cells expressing a mouse DP receptor were prepared according to the method of Nishigaki et al. (FEBS lett., 364, 339–341 (1995)), inoculated onto a 24-well microplate at 10^5 cells/well, followed by culturing for 2 days, and used for the assay. Each well was washed with 500 μL of MEM (minimum essential medium), and 450 μL of assay medium (MEM containing 1 mmol/L IBMX and 0.1 or 1% BSA), followed by incubation at 37° C. for 10 minutes. Then, an assay medium (50 μL) containing PGD2 alone or PGD2 with a test compound was added thereto to start the reaction, and after the reaction at 37° C. for 10 minutes, 500 μL of ice-cold trichloroacetatic acid (TCA) (10% w/v) was added thereto to stop the reaction. The reaction solution was frozen once (−80° C.) and thawed, and cells were peeled using a scraper, followed by centrifugation at 13,000 rpm for 3 minutes. The cAMP concentration was measured with a cAMP assay kit using the resulting supernatant. […] Trichloro acetic acid (TCA) was extracted to the chloroform layer and removed, the cAMP amount in a sample was determined using the aqueous layer as the sample according to the method described in the [^125I]cAMP assay kit. […]

As to `Cc1cc2c(CC(=O)O)cccc2n1C(=O)c1ccc(OCCc2ccccc2)cc1` [1(3)], at mouse DP receptor [1], the Ki was 1.8 nM. For the same compound, the IC50 against mouse DP receptor [2] is 120 nM.

Compound `CCCCCOc1ccc(C(=O)n2c(C)cc3c(CC(=O)O)cccc32)cc1` [1(4), 1-(4-Pentyloxybenzoyl)-2-methylindole-4-acetic acid] returned a Ki at mouse DP receptor [1] of 4.3 nM.
